Data: the kinase profiling compilation of Christmann-Franck et al. (2016)

Experiments:
Test in all cases: KINOMEscan competition binding
Details in all cases: compound 10.0 µM
[1] = biological target: FLT1 (human) (UniProt P17948)
[2] = biological target: SYK (human) (UniProt P43405)
[3] = biological target: TGFBR2 (human) (UniProt P37173)
[4] = biological target: RPS6KA1 KD2 (human) (UniProt Q15418)
[5] = biological target: SIK3 (human) (UniProt Q9Y2K2)
[6] = biological target: RET (human) (UniProt P07949)
[7] = biological target: CDKL3 (human) (UniProt Q8IVW4)
[8] = biological target: MYLK (human) (UniProt Q15746)
[9] = biological target: STK24 (human) (UniProt Q9Y6E0)
[10] = biological target: RIPK1 (human) (UniProt Q13546)
[11] = biological target: GRK4 (human) (UniProt P32298)
[12] = biological target: CHEK1 (human) (UniProt O14757)
[13] = biological target: STK35 (human) (UniProt Q8TDR2)
[14] = biological target: CDK5 (human) (UniProt Q00535)
[15] = biological target: LTK (human) (UniProt P29376)
[16] = biological target: AURKA (human) (UniProt O14965)
[17] = biological target: EPHA1 (human) (UniProt P21709)
[18] = biological target: PKMYT1 (human) (UniProt Q99640)
[19] = biological target: CLK4 (human) (UniProt Q9HAZ1)
[20] = biological target: PLK3 (human) (UniProt Q9H4B4)
[21] = biological target: HCK (human) (UniProt P08631)
[22] = biological target: PAK2 (human) (UniProt Q13177)
[23] = biological target: CDK19 (human) (UniProt Q9BWU1)
[24] = biological target: SRPK2 (human) (UniProt P78362)
[25] = biological target: EPHA7 (human) (UniProt Q15375)
[26] = biological target: HIPK1 (human) (UniProt Q86Z02)
[27] = biological target: MAP3K11 (human) (UniProt Q16584)
[28] = biological target: MUSK (human) (UniProt O15146)
[29] = biological target: FLT4 (human) (UniProt P35916)
[30] = biological target: TSSK1B (human) (UniProt Q9BXA7)
[31] = biological target: MAP3K15 (human) (UniProt Q6ZN16)
[32] = biological target: PIK3C2B (human) (UniProt O00750)
[33] = biological target: TBK1 (human) (UniProt Q9UHD2)
[34] = biological target: HIPK2 (human) (UniProt Q9H2X6)
[35] = biological target: MYO3A (human) (UniProt Q8NEV4)
[36] = biological target: CaMK1 (human) (UniProt Q14012)
[37] = biological target: CDK17 (human) (UniProt Q00537)
[38] = biological target: CRK2 (P.falciparum) (UniProt P61075)
[39] = biological target: CDK13 (human) (UniProt Q14004)
[40] = tested on: KIT (human), P10721 [A829P]

Sequence of PLK3 (human) (Q9H4B4 whole entry, looked up): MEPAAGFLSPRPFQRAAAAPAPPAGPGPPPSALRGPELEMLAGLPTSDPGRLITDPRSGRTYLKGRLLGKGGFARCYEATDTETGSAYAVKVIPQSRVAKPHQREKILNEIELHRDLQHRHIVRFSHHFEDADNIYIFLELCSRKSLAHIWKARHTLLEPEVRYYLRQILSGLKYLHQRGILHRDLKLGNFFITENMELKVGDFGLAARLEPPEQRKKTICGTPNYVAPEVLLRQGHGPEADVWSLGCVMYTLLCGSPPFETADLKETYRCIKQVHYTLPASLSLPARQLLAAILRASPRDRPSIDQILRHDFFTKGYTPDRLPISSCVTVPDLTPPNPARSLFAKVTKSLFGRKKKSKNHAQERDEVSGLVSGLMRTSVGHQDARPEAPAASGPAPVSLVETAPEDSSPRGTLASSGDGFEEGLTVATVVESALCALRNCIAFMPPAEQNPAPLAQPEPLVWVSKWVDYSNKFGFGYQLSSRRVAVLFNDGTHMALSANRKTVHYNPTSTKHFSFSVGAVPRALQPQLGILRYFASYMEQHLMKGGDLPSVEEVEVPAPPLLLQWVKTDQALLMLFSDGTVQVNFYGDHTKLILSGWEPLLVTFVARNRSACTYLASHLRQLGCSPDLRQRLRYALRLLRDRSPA
Sequence of STK35 (human) (Q8TDR2 whole entry, looked up): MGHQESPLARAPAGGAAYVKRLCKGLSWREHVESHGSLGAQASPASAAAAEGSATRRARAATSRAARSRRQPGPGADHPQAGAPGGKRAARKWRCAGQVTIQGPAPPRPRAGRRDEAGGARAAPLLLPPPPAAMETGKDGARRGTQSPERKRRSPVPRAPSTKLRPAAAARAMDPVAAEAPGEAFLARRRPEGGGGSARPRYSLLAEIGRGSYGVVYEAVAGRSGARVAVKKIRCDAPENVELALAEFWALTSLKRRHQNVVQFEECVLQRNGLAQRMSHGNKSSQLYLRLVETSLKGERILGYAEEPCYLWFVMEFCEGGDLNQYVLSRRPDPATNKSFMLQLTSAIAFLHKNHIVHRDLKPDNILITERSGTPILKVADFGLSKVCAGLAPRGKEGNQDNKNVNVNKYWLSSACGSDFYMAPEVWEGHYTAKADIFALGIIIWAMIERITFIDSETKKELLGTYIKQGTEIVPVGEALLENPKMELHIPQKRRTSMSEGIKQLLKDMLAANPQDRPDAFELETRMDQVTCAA
Sequence of CDK19 (human) (Q9BWU1 whole entry, looked up): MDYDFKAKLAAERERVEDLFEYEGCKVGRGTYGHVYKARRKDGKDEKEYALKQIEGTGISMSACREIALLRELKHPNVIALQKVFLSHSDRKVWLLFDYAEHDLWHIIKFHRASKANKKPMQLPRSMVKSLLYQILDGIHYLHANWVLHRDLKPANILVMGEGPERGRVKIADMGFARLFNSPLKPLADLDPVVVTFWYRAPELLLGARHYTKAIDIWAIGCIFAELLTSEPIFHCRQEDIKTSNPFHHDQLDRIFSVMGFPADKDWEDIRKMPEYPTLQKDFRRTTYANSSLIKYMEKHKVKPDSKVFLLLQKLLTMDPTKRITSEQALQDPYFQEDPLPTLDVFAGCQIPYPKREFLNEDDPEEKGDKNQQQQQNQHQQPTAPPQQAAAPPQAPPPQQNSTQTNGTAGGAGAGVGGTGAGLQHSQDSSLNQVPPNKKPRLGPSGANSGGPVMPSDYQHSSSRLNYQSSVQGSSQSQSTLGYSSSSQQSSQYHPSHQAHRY
Sequence of FLT1 (human) (P17948 whole entry, looked up): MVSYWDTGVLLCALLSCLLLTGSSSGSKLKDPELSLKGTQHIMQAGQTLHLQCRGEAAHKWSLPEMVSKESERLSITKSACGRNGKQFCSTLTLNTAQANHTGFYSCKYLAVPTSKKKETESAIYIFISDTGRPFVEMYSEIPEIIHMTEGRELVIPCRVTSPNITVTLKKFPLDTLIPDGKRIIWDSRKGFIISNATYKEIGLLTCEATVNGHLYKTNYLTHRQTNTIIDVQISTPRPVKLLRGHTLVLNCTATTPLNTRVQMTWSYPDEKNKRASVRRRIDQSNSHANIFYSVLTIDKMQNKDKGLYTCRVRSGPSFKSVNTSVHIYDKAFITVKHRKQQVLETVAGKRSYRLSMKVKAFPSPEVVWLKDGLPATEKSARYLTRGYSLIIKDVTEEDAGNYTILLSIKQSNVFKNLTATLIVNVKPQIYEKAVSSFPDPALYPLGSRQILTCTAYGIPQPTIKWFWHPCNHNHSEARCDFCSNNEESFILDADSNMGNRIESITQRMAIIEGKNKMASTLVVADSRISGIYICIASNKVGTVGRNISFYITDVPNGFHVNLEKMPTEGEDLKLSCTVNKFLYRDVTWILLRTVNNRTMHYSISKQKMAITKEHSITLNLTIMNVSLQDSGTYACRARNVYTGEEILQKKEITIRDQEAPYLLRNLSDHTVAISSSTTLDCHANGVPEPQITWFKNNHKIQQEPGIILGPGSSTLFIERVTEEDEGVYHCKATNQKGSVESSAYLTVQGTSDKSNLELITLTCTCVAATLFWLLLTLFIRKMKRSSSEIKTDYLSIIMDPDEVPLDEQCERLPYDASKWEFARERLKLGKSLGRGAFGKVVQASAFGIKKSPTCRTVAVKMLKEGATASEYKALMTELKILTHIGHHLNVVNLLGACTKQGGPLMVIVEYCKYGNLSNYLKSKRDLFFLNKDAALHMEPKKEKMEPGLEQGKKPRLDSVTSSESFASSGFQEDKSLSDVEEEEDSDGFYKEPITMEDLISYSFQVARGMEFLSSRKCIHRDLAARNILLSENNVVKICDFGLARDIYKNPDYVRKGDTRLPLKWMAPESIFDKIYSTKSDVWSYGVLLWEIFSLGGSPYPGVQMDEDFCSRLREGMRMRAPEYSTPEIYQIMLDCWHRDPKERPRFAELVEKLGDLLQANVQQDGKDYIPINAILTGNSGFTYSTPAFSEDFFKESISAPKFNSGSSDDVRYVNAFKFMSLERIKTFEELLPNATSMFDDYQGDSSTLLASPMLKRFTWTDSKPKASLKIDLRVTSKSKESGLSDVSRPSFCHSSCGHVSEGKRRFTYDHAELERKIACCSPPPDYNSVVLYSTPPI
Sequence of CaMK1 (human) (Q14012 whole entry, looked up): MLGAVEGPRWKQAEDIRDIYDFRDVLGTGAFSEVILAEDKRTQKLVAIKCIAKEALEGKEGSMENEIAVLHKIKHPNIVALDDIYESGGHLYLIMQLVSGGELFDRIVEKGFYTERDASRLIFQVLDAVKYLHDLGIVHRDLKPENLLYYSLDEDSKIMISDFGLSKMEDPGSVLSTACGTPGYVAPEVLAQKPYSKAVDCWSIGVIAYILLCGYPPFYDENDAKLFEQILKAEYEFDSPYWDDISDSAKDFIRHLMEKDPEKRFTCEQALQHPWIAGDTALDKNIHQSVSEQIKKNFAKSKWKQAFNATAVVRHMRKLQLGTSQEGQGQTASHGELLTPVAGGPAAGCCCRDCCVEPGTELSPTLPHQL
Sequence of GRK4 (human) (P32298 whole entry, looked up): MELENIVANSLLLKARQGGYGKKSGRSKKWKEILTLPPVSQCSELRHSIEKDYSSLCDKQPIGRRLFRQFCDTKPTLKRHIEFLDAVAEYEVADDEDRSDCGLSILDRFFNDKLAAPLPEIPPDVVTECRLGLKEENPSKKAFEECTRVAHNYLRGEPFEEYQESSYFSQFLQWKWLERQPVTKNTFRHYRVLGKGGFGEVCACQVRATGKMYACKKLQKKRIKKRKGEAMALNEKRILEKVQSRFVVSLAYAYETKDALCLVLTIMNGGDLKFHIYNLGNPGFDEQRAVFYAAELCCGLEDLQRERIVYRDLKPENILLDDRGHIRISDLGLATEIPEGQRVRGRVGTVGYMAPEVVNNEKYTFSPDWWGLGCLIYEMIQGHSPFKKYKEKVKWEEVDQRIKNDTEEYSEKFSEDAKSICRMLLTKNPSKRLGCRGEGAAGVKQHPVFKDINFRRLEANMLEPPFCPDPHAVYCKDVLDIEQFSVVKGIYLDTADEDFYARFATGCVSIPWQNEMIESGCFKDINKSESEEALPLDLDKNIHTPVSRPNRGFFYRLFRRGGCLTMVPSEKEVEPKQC
Sequence of STK24 (human) (Q9Y6E0 whole entry, looked up): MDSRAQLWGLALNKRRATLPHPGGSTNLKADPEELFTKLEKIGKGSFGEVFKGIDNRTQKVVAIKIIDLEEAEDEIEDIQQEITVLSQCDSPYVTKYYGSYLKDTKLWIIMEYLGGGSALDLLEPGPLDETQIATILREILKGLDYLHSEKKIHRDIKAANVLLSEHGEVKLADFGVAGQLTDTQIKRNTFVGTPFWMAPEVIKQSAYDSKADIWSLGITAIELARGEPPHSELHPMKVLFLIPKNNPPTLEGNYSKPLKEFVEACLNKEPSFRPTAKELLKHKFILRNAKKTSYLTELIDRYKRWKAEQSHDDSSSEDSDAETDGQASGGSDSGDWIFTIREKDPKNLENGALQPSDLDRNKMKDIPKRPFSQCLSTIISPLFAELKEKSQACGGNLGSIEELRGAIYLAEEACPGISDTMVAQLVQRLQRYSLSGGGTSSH
Sequence of AURKA (human) (O14965 whole entry, looked up): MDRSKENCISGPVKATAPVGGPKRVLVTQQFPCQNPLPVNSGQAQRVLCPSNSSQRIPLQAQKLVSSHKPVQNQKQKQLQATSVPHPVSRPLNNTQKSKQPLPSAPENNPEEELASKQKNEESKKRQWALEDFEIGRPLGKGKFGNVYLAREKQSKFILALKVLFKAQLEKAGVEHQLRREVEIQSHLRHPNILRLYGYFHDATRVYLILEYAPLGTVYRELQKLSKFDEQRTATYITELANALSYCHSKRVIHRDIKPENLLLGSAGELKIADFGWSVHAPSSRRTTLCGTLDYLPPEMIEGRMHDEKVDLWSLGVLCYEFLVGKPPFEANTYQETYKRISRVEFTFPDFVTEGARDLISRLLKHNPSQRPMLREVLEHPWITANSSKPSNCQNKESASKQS

| SMILES | kinase still bound, per cent of control [1] [%] | kinase still bound, per cent of control [4] [%] | kinase still bound, per cent of control [5] [%] | kinase still bound, per cent of control [6] [%] | kinase still bound, per cent of control [7] [%] | kinase still bound, per cent of control [8] [%] | kinase still bound, per cent of control [9] [%] | kinase still bound, per cent of control [10] [%] | kinase still bound, per cent of control [11] [%] | kinase still bound, per cent of control [12] [%] | kinase still bound, per cent of control [13] [%] | kinase still bound, per cent of control [14] [%] | kinase still bound, per cent of control [16] [%] | kinase still bound, per cent of control [17] [%] | kinase still bound, per cent of control [18] [%] | kinase still bound, per cent of control [19] [%] | kinase still bound, per cent of control [20] [%] | kinase still bound, per cent of control [22] [%] | kinase still bound, per cent of control [23] [%] | kinase still bound, per cent of control [24] [%] | further results |
| --- | --- | --- | --- | --- | --- | --- | --- | --- | --- | --- | --- | --- | --- | --- | --- | --- | --- | --- | --- | --- | --- |
| CCOc1cc(N2CCC(O)CC2)ccc1Nc1ncc2c(n1)N(C)c1ccccc1C(=O)N2C | 100 | 28 | 100 | 100 | 100 | 100 | 100 | 100 | 100 | 100 | 100 | 100 | 100 | 100 | 100 | 100 | 100 | 100 | 100 | 100 | kinase still bound, per cent of control [2]: 100%; kinase still bound, per cent of control [3]: 100%; kinase still bound, per cent of control [15]: 100%; kinase still bound, per cent of control [21]: 100%; kinase still bound, per cent of control [25]: 100%; kinase still bound, per cent of control [26]: 100%; kinase still bound, per cent of control [27]: 100%; kinase still bound, per cent of control [28]: 100%; kinase still bound, per cent of control [29]: 100%; kinase still bound, per cent of control [30]: 100%; kinase still bound, per cent of control [31]: 100%; kinase still bound, per cent of control [32]: 100%; kinase still bound, per cent of control [33]: 100%; kinase still bound, per cent of control [34]: 100%; kinase still bound, per cent of control [35]: 100%; kinase still bound, per cent of control [36]: 100%; kinase still bound, per cent of control [37]: 100% |
| CC(=O)c1c(C)c2cnc(Nc3ccc(N4CCNCC4)cn3)nc2n(C2CCCC2)c1=O | 100 | 38 | 100 | 71 | 78 | 20 | 16 | 65 | 26 | 20 | 66 | 48 | 83 | 100 | 77 | 2 | 19 | 93 | 100 | 68 | kinase still bound, per cent of control [38]: 19%; kinase still bound, per cent of control [39]: 47%; kinase still bound, per cent of control [26]: 0.1%; kinase still bound, per cent of control [30]: 8%; kinase still bound, per cent of control [40]: 32%; kinase still bound, per cent of control [31]: 11%; kinase still bound, per cent of control [32]: 98%; kinase still bound, per cent of control [33]: 47%; kinase still bound, per cent of control [34]: 0.25%; kinase still bound, per cent of control [35]: 58%; kinase still bound, per cent of control [36]: 35%; kinase still bound, per cent of control [37]: 2.7% |
